Reference: ChEMBL document CHEMBL3352218, “Structural basis for inhibition of mycobacterial and human adenosine kinase by 7-substituted 7-(Het)aryl-7-deazaadenine ribonucleosides” (J Med Chem, 2014)

System: Mycobacterium tuberculosis
Experiment: microbe, parasite or virus in culture
Details: variant bovis BCG, 504 h

Point of comparison: `Cc1ccc(-c2cn([C@@H]3O[C@H](CO)[C@@H](O)[C@H]3O)c3ncnc(N)c23)cc1C`, IC50 1.13 µM. Against it:
- Nc1ncnc2c1c(-c1ccccc1)cn2[C@@H]1O[C@H](CO)[C@@H](O)[C@H]1O — within 1.5-fold, 1.34 µM
- Nc1ncnc2c1c(-c1nccs1)cn2[C@@H]1O[C@H](CO)[C@@H](O)[C@H]1O — 2.2-fold higher, 2.51 µM
- Nc1ncnc2c1c(-c1cccc3ccccc13)cn2[C@@H]1O[C@H](CO)[C@@H](O)[C@H]1O — 1.7-fold higher, 1.87 µM
- Nc1ncnc2c1c(-c1ccc3c4c(cccc14)CC3)cn2[C@@H]1O[C@H](CO)[C@@H](O)[C@H]1O — 1.5-fold higher, 1.74 µM
- Nc1ncnc2c1c(-c1cccc3c1oc1ccccc13)cn2[C@@H]1O[C@H](CO)[C@@H](O)[C@H]1O — 5.9-fold lower, 0.19 µM
- Nc1ncnc2c1c(-c1ccc(-c3ccccc3)cc1)cn2[C@@H]1O[C@H](CO)[C@@H](O)[C@H]1O — within 1.5-fold, 1.68 µM
- Nc1ncnc2c1c(-c1ncc[nH]1)cn2[C@@H]1O[C@H](CO)[C@@H](O)[C@H]1O — higher, > 100 µM
- CC(C)(C)c1ccc(-c2cn([C@@H]3O[C@H](CO)[C@@H](O)[C@H]3O)c3ncnc(N)c23)cc1 — 4-fold higher, 4.54 µM
- CSc1ccc(-c2cn([C@@H]3O[C@H](CO)[C@@H](O)[C@H]3O)c3ncnc(N)c23)cc1 — 3.1-fold lower, 0.36 µM
- Nc1ncnc2c1c(-c1ccsc1)cn2[C@@H]1O[C@H](CO)[C@@H](O)[C@H]1O — 3.5-fold higher, 3.93 µM
- C#Cc1cn([C@@H]2O[C@H](CO)[C@@H](O)[C@H]2O)c2ncnc(N)c12 — 8.7-fold lower, 0.13 µM
- Nc1ncnc2c1c(-c1ccc(C(F)(F)F)cc1)cn2[C@@H]1O[C@H](CO)[C@@H](O)[C@H]1O — within 1.5-fold, 1.16 µM
- COc1cc(-c2cn([C@@H]3O[C@H](CO)[C@@H](O)[C@H]3O)c3ncnc(N)c23)cc(OC)c1OC — 6.2-fold higher, 7.05 µM
- CC(C)c1cccc(-c2cn([C@@H]3O[C@H](CO)[C@@H](O)[C@H]3O)c3ncnc(N)c23)c1 — 6-fold higher, 6.75 µM
- Nc1ncnc2c1c(-c1cc3ccccc3o1)cn2[C@@H]1O[C@H](CO)[C@@H](O)[C@H]1O — 2-fold higher, 2.27 µM
- Nc1ncnc2c1c(-c1cc[nH]n1)cn2[C@@H]1O[C@H](CO)[C@@H](O)[C@H]1O — 42-fold higher, 48 µM
- Nc1ncnc2c1c(-c1ccc3c(c1)OCO3)cn2[C@@H]1O[C@H](CO)[C@@H](O)[C@H]1O — within 1.5-fold, 1.38 µM
- Nc1ncnc2c1c(-c1ccc(-c3ccc4ccccc4c3)cc1)cn2[C@@H]1O[C@H](CO)[C@@H](O)[C@H]1O — 66-fold higher, 74.4 µM
- Nc1ncnc2c1c(-c1cccc3c1Sc1ccccc1S3)cn2[C@@H]1O[C@H](CO)[C@@H](O)[C@H]1O — 39-fold higher, 44.3 µM
- Nc1ncnc2c1c(-c1ccc[nH]1)cn2[C@@H]1O[C@H](CO)[C@@H](O)[C@H]1O — 6.4-fold higher, 7.27 µM
- Nc1ncnc2c1c(-c1ccc(COc3cccc4ccccc34)cc1)cn2[C@@H]1O[C@H](CO)[C@@H](O)[C@H]1O — 5.7-fold higher, 6.39 µM
- Nc1ncnc2c1c(/C=C/c1ccccc1)cn2[C@@H]1O[C@H](CO)[C@@H](O)[C@H]1O — within 1.5-fold, 1.3 µM
- CC(C)c1ccc(-c2cn([C@@H]3O[C@H](CO)[C@@H](O)[C@H]3O)c3ncnc(N)c23)cc1 — 4.7-fold higher, 5.29 µM
- Nc1ncnc2c1c(-c1cc[nH]c1)cn2[C@@H]1O[C@H](CO)[C@@H](O)[C@H]1O — within 1.5-fold, 1.12 µM
- Nc1ncnc2c1c(-c1ccc3ccccc3c1)cn2[C@@H]1O[C@H](CO)[C@@H](O)[C@H]1O — 2.9-fold lower, 0.39 µM
- Nc1ncnc2c1c(-c1ccoc1)cn2[C@@H]1O[C@H](CO)[C@@H](O)[C@H]1O — 7.4-fold higher, 8.31 µM
- Nc1ncnc2c1c(-c1cccc3c1Oc1ccccc1S3)cn2[C@@H]1O[C@H](CO)[C@@H](O)[C@H]1O — 4-fold higher, 4.53 µM
- Nc1ncnc2c1c(-c1c[nH]cn1)cn2[C@@H]1O[C@H](CO)[C@@H](O)[C@H]1O — higher, > 100 µM
- Nc1ncnc2c1c(-c1cc3ccccc3c3ccccc13)cn2[C@@H]1O[C@H](CO)[C@@H](O)[C@H]1O — 1.7-fold higher, 1.9 µM
- Nc1ncnc2c1c(-c1cn[nH]c1)cn2[C@@H]1O[C@H](CO)[C@@H](O)[C@H]1O — 2.7-fold higher, 3.08 µM
- CC(C)Oc1ccc(-c2cn([C@@H]3O[C@H](CO)[C@@H](O)[C@H]3O)c3ncnc(N)c23)cc1 — 2.7-fold higher, 3.07 µM
- COc1ccc(-c2cn([C@@H]3O[C@H](CO)[C@@H](O)[C@H]3O)c3ncnc(N)c23)cc1 — 1.8-fold higher, 2.08 µM
- Nc1ncnc2c1c(-c1c[nH]nn1)cn2[C@@H]1O[C@H](CO)[C@@H](O)[C@H]1O — 61-fold higher, 69 µM
